Laboratory results reported in patent publication US8952024B2, “Herbicidal pyrimidone derivatives” (E I du Pont de Nemours and Company, priority 2009, dated 2015).

Legend:
Format in all cases: in vivo
[1] = tested on: pigweed (Amaranthus retroflexus); test: Test A pre-/postemergence plant response; settings: for Pigweed plant response rating: visual injury, 0 to 100 scale (0 no effect, 100 complete control), approx. ten days
Text: (§1) Seeds of barnyardgrass (Echinochloa crus-galli), large crabgrass (Digitaria sanguinalis), giant foxtail (Setaria faberii), morningglory (Ipomoea spp.), pigweed (Amaranthus retroflexus), velvetleaf (Abutilon theophrasti), wheat (Triticum aestivum) and corn (Zea mays) were planted into a blend of loam soil and sand and treated preemergence with a directed soil spray using test chemicals formulated in a non-phytotoxic solvent mixture which included a surfactant. At the same time these species were also treated with postemergence applications of test compounds formulated in the same manner.
(§2) Plants ranged in height from two to ten cm and were in the one- to two-leaf stage for the postemergence treatment. Treated plants and untreated controls were maintained in a greenhouse for approximately ten days, after which time all treated plants were compared to untreated controls and visually evaluated for injury. Plant response ratings, summarized in Table A, are based on a 0 to 100 scale where 0 is no effect and 100 is complete control. A dash (-) response means no test result.

[2] = tested on: morningglory (Ipomoea spp.); test: Test A pre-/postemergence plant response; settings: for Morningglory plant response rating: visual injury, 0 to 100 scale (0 no effect, 100 complete control), approx. ten days
Text: as §1, §2

[3] = tested on: giant foxtail (Setaria faberii); test: Test A pre-/postemergence plant response; settings: for Foxtail, Giant plant response rating: visual injury, 0 to 100 scale (0 no effect, 100 complete control), approx. ten days
Text: as §1, §2

[4] = tested on: wheat (Triticum aestivum); test: Test A pre-/postemergence plant response; settings: for Wheat plant response rating: visual injury, 0 to 100 scale (0 no effect, 100 complete control), approx. ten days
Text: as §1, §2

[5] = tested on: barnyardgrass (Echinochloa crus-galli); test: Test A pre-/postemergence plant response; settings: for Barnyardgrass plant response rating: visual injury, 0 to 100 scale (0 no effect, 100 complete control), approx. ten days
Text: as §1, §2

[6] = tested on: large crabgrass (Digitaria sanguinalis); test: Test A pre-/postemergence plant response; settings: for Crabgrass, Large plant response rating: visual injury, 0 to 100 scale (0 no effect, 100 complete control), approx. ten days
Text: as §1, §2

[7] = tested on: corn (Zea mays); test: Test A pre-/postemergence plant response; settings: for Corn plant response rating: visual injury, 0 to 100 scale (0 no effect, 100 complete control), approx. ten days
Text: as §1, §2

[8] = tested on: velvetleaf (Abutilon theophrasti); test: Test A pre-/postemergence plant response; settings: for Velvetleaf plant response rating: visual injury, 0 to 100 scale (0 no effect, 100 complete control), approx. ten days
Text: as §1, §2

[9] = tested on: rice (Oryza sativa); test: Test B flooded paddy test; settings: for Plant response rating, Rice: Flood (flooded paddy test), 13 to 15 days
Procedure, shortened: (§3)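 Each compound is added to standing floodwater (3 cm above soil, maintained) in pots of 2-leaf-stage plants; greenhouse exposure lasts 13–15 d before visual comparison with controls on a 0–100 control scale.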

[10] = tested on: ducksalad (Heteranthera limosa); test: Test B flooded paddy test; settings: for Plant response rating, Ducksalad: Flood (flooded paddy test), 13 to 15 days
Procedure, shortened: as §3

[11] = tested on: umbrella sedge (Cyperus difformis); test: Test B flooded paddy test; settings: for Plant response rating, Sedge, Umbrella: Flood (flooded paddy test), 13 to 15 days
Procedure, shortened: as §3

[12] = tested on: barnyardgrass (Echinochloa crus-galli); test: Test B flooded paddy test; settings: for Plant response rating, Barnyardgrass: Flood (flooded paddy test), 13 to 15 days
Procedure, shortened: as §3

[13] = Postemergence, 125 g ai/ha, 0 to 100 scale where 0 is no effect and 100 is complete control
[14] = Preemergence, 125 g ai/ha, 0 to 100 scale, 0 = no effect, 100 = complete control
[15] = Preemergence, 500 g ai/ha, 0 to 100 scale, 0 = no effect, 100 = complete control
[16] = 125 g ai/ha, scale 0 to 100, 0 is no effect, 100 is complete control
[17] = Flood, 31 g ai/ha, scale 0 to 100 (0 no effect, 100 complete control)
[18] = 250 g ai/ha, flooded paddy test, visual rating on 0 to 100 scale (0 no effect, 100 complete control) after 13 to 15 days
[19] = 62 g ai/ha, scale of 0 to 100 where 0 is no effect and 100 is complete control

SMILES	Plant response rating, Pigweed [1, 13]	Pigweed plant response rating ([1]; Postemergence, 500 g ai/ha)	Plant response rating, Pigweed [1, 14]	Plant response rating, Pigweed [1, 15]	Plant response rating, Morningglory [2, 13]	Morningglory plant response rating ([2]; Postemergence, 500 g ai/ha)	Plant response rating, Morningglory [2, 14]	Plant response rating, Morningglory [2, 15]	Plant response rating, Foxtail, Giant [3, 13]	Foxtail, Giant plant response rating ([3]; Postemergence, 500 g ai/ha)	Plant response rating, Foxtail, Giant [3, 14]	Plant response rating, Foxtail, Giant [3, 15]	Plant response rating, Wheat [4, 13]	Wheat plant response rating ([4]; Postemergence, 500 g ai/ha)	Plant response rating, Wheat [4, 14]	Plant response rating, Wheat [4, 15]	Plant response rating, Barnyardgrass [5, 13]	Barnyardgrass plant response rating ([5]; Postemergence, 500 g ai/ha)	Plant response rating, Barnyardgrass [5, 14]	Plant response rating, Barnyardgrass [5, 15]	further results
O=C1CCCC(O)=C1C(=O)c1cnc(-c2ccccc2)n(C2CC[S+]([O-])CC2)c1=O (mixture of isomers) [Compound 168, 5-[(2-hydroxy-6-oxo-1-cyclohexen-1-yl)carbonyl]-2-phenyl-3-(cis/trans-tetrahydro-1-oxido-2H-thiopyran-4-yl)-4(3H)-pyrimidinone]	100	100	10	50	100	100	0	70	50	90	10	70	0	50	0	0	30	100	0	20	Plant response rating, Crabgrass, Large [6, 13]: 50; Crabgrass, Large plant response rating ([6]; Postemergence, 500 g ai/ha): 90; Plant response rating, Crabgrass, Large [6, 14]: 30; Plant response rating, Crabgrass, Large [6, 15]: 80; Plant response rating, Corn [7, 13]: 20; Corn plant response rating ([7]; Postemergence, 500 g ai/ha): 30; Plant response rating, Corn [7, 14]: 0; Plant response rating, Corn [7, 15]: 0; Plant response rating, Velvetleaf [8, 13]: 100; Velvetleaf plant response rating ([8]; Postemergence, 500 g ai/ha): 100; Plant response rating, Velvetleaf [8, 14]: 0; Plant response rating, Velvetleaf [8, 15]: 60; Plant response rating, Rice [9, 16]: 0; Rice plant response rating [9, 17]: 0; Plant response rating, Ducksalad [10, 16]: 30; Ducksalad plant response rating [10, 17]: 0; Plant response rating, Sedge, Umbrella [11, 16]: 20; Sedge, Umbrella plant response rating [11, 17]: 0; Plant response rating, Barnyardgrass [12, 16]: 0; Barnyardgrass plant response rating [12, 17]: 0
C=CCCn1c(-c2ccccc2)ncc(C(=O)C2=C(O)CCCC2=O)c1=O [Compound 214]	90	100	70	90	80	100	0	80	50	90	30	70	0	20	0	30	80	90	10	60	Plant response rating, Crabgrass, Large [6, 13]: 80; Crabgrass, Large plant response rating ([6]; Postemergence, 500 g ai/ha): 90; Plant response rating, Crabgrass, Large [6, 14]: 30; Plant response rating, Crabgrass, Large [6, 15]: 90; Plant response rating, Corn [7, 13]: 0; Corn plant response rating ([7]; Postemergence, 500 g ai/ha): 30; Plant response rating, Corn [7, 14]: 0; Plant response rating, Corn [7, 15]: 0; Plant response rating, Velvetleaf [8, 13]: 100; Velvetleaf plant response rating ([8]; Postemergence, 500 g ai/ha): 100; Plant response rating, Velvetleaf [8, 14]: 90; Plant response rating, Velvetleaf [8, 15]: 100; Plant response rating, Flood, Rice [9, 18]: 15; Plant response rating, Rice [9, 19]: 0; Plant response rating, Flood, Ducksalad [10, 18]: 95; Plant response rating, Ducksalad [10, 19]: 0; Plant response rating, Flood, Sedge, Umbrella [11, 18]: 85; Plant response rating, Sedge, Umbrella [11, 19]: 0; Plant response rating, Flood, Barnyardgrass [12, 18]: 20; Plant response rating, Barnyardgrass [12, 19]: 0
